Test results reported in patent publication US10959966B2, “Compositions and methods for modulating HEXM1 expression” (CASE WESTERN RESERVE UNIVERSITY, priority 2014, dated 2021).

Columns and labels:
Assay type in all cases: cell-based
[1] = system: HEXIM1 expression in breast cancer MCF7 cells; assay: HEXIM1 protein expression in MCF7 cells; conditions: 18 h
Description: FIGS. 5(A-C) illustrate (A) the structure of HMBA analog, 4a1, (B) a graph showing HEXIM1 protein expression of breast cancer MCF7 cells treated with vehicle, HMBA, or 4a1 for 18 h, and (C) Western blot analyses of HEXIM1 targets relative to the loading control (GAPDH) of the treated cells.
(§1) MCF7, MDA-MB-231, and LNCaP cells were obtained from the American Tissue Culture Collection, and were maintained as previously described. Construction of expression vectors for control miRNA or HEXIM1 miRNAs were described previously. MCF7 or LNCaP cells were transfected with expression vectors containing either the HEXIM1 miRNA insert or a control miRNA insert as previously described. Following blasticidin selection, cells expressing the highest level of GFP were flow-sorted and expanded. MDA-MB-231 cells were transfected with control or expression vector for Flag-tagged HEXIM1 as previously described. The tamoxifen resistant cells line (TOTR) was generated by serial passage of parental MCF7 cells in growth media supplemented with 1 uM trans-hydroxytamoxifen.
Cell lysates were analyzed by western blot as previously described. Anti-HEXIM1 was generated in the Montano laboratory. Primary antibodies against p21 (C-19; cat# sc-397), cyclin D1 (HD11; cat# sc-246) and myc (9E10; cat# sc-40) were obtained from Santa Cruz Biotechnology. Anti-GAPDH was obtained from Millipore. […]

[2] = system: recruitment of CDK9 to HEXIM1 gene in MCF7 cells; assay: ChIP assay, CDK9 recruitment to HEXIM1 gene, MCF7 cells; conditions: 5 mM HMBA or 50 μM 4a1, 90 minutes
Description: (§2) FIGS. 6(A-B) illustrate graphs showing HEXIM1 graphs showing HMBA and 4a1 induced recruitment of CDK9 to HEXIM1 promoter in MCF7 and LNCaP cells treated with 5 mM HMBA or 50 μM 4a1 for 90 minutes.
(§3) ChIP assays were carried out as previously described. Anti-CDK9 antibody (D-7; cat# sc-13130) was obtained from Santa Cruz Biotechnology.
(§4) The induction of HEXIM1 by HMBA appears to involve the release of free P-TEFb from 7SK snRNP, and recruitment of P-TEFb to HEXIM1 gene. P-TEFb is a heterodimer between the cyclin-dependent kinase 9 (Cdk9) and its regulatory subunit Cyclin T1 (CycT1). We thus determined the regulation of the recruitment of CDK9 to the HEXIM1 coding sequence by HMBA and 4a1.

[3] = system: recruitment of CDK9 to HEXIM1 gene in LNCaP cells; assay: ChIP assay, CDK9 recruitment to HEXIM1 gene, LNCaP cells; conditions: 5 mM HMBA or 50 μM 4a1, 90 minutes
Description: as §2, §3, §4

[4] = system: p21 expression in prostate cancer LNCaP cells; assay: p21 expression by western blot, LNCaP cells; conditions: 5 mM HMBA or 50 μM 4a1, 18 hours
Description: FIGS. 7(A-B) illustrate Western blots showing (A) MCF7 (control siRNA or HEXIM1 siRNA) and (B) LNCaP (control shRNA or HEXIM1 shRNA) cells treated with vehicle (DMSO), 5 mM HMBA, or 50 μM 4a1 for 18 hours.
Cell lysates were analyzed by western blot as previously described. Anti-HEXIM1 was generated in the Montano laboratory. Primary antibodies against p21 (C-19; cat# sc-397), cyclin D1 (HD11; cat# sc-246) and myc (9E10; cat# sc-40) were obtained from Santa Cruz Biotechnology. Anti-GAPDH was obtained from Millipore. Anti-HIF-1α was obtained from Oxy-cell, Bioresearch).
HMBA was investigated in a Phase II clinical trial due to its potent anti-cancer and cell differentiation activities. Moreover, the roles of HMBA, and potentially 4a1, as differentiating factors are advantageous for their therapeutic use when compared to cytotoxic agents. […] We also examined the ability of 4a1 to induce differentiation and the relative role of HEXIM1.

[5] = system: MCF7 cells; assay: Nile red staining of lipid droplets (differentiation marker), MCF7 cells; conditions: 72 hours
Description: (§5) FIGS. 8(A-B) illustrate images showing (A) MCF7 cells transfected with control or HEXIM1 siRNA or (B) MDA-MB-231 transfected with control or HEXIM1 expression vector treated with vehicle (DMSO), HMBA, or 4a1 for 72 hours. Lower panels show Western blot analyses of HEXIM1 expression in MDA-MB-231 cells transfected with control or expression vector for Flag-tagged HEXIM1.
(§6) Cells were stained with Nile red for lipid droplets (marker of cell differentiation). Briefly, the stock solution of Nile red 1 mg/ml in acetone was diluted in PBS (1:1000). The fixed cells (4% paraformaldehyde) were incubated with diluted Nile red for 5 minutes at room temperature, rinsed with PBS and observed for the presence of lipid droplets by confocal microscopy. Images were digitally captured using a Leica microscope (Leica Microsystems Inc, IL, USA).

[6] = system: triple negative MDA-MB-231 breast cancer cells; assay: Nile red staining of lipid droplets (differentiation marker), MDA-MB-231 cells; conditions: 72 hours
Description: as §5, §6

[7] = system: HEXIM1 expression in MCF7/TOTR cells; assay: HEXIM1 expression in tamoxifen resistant MCF7/TOTR cells; conditions: 5 mM HMBA or 50 μM 4a1
Description: (§7) FIGS. 9(A-B) illustrate a Western blot and plots showing HEXIM1 expression in MCF7 and MCF7(TOTR) cells in the presence of vehicle (DMSO), 5 mM HMBA or 50 μM 4a1.
as §1, with “The tamoxifen resistant cells line (TOTR) was generated by serial passage of parental MCF7 cells in growth media supplemented with 1 uM trans-hydroxytamoxifen.” left out
Cell lysates were analyzed by western blot as previously described. […]
(§8) We have reported that HEXIM1 is required for the ability of antiestrogens to inhibit the activity of the Estrogen Receptor, that loss of HEXIM1 results in agonistic activity of tamoxifen, and that recurrence after tamoxifen therapy can be correlated with loss of HEXIM1 expression in human breast tissue samples. Thus we determined if HMBA and 4a1 can enhance sensitivity to tamoxifen of a tamoxifen resistant breast cancer line (MCF7/TOTR). […]

[8] = system: tamoxifen resistant breast cancer line (MCF7/TOTR); assay: MTT proliferation assay, sensitivity to trans-hydroxytamoxifen; conditions: 7 days, 5 mM HMBA or 50 μM 4a1
Description: as §7
MCF7, MDA-MB-231, and LNCaP cells were obtained from the American Tissue Culture Collection, and were maintained as previously described. Construction of expression vectors for control miRNA or HEXIM1 miRNAs were described previously. MCF7 or LNCaP cells were transfected with expression vectors containing either the HEXIM1 miRNA insert or a control miRNA insert as previously described. Following blasticidin selection, cells expressing the highest level of GFP were flow-sorted and expanded. […]
MCF7 cells were plated onto 96 well plates and treated with 17β-estradiol±trans-hydroxytamoxifen in the presence of DMSO (vehicle), HMBA or 4a1 for 7 days. Cell proliferation was assessed using the MTT based Cell Growth Determination Kit from Sigma-Aldrich according to the manufacturer's protocol.
as §8

COc1ccc(CC(=O)NCCCCCCNC(C)=O)cc1 [Compound 4a1]
Potency of HEXIM1 induction compared to HMBA [1]: increased potency
Recruitment of CDK9 to HEXIM1 gene [2]: induce recruitment of CDK9
Recruitment of CDK9 to HEXIM1 gene [3]: induce recruitment of CDK9
p21 expression [4]: induction of p21 expression
Cell differentiation (lipid droplets, Nile red) [5]: induced differentiation
Cell differentiation (lipid droplets, Nile red) [6]: induced differentiation
HEXIM1 expression [7]: induced HEXIM1 expression
Sensitivity of TOTR cells to trans-hydroxytamoxifen [8]: enhanced the sensitivity
